Data from patent US20140005163A1 (NOVARTIS AG, priority 2010, published 2014).
Values after ≈ are worked out from the molar mass of the structure shown. Where two headings read alike, the source gives them in different places.

What was measured:
Solubility at pH 6.8 = type: physicochemical
Source text: The physicochemical properties of relevance for the absorption of the compound, such as the solubility and the membrane permeability, especially at a pH close to neutral pH can be measured using the procedure as described by L. ZHOU et al. in JOURNAL OF PHARMACEUTICAL SCIENCES, VOL. 96, NO. 11, p. 3052-3071 (2007) for the solubility at pH 6.8 and the procedure as described by F. Wohnsland and B. Faller in Journal of Medicinal Chemistry Vol 44, p. 923-930 (2001) for the Parallel Artificial Membrane Permeability Assay (PAMPA) at pH 6.8.

mTOR = molecular target: T1, mTOR (Homo sapiens, UniProt P42345); test: Biochemical assay for m-TOR by TR-FRET; conditions: 8 μM ATP, 400 nM GFP-4EBP1, 0.5 nM mTOR
T1 construct: purchased Invitrogen Corporation (Carlsbad/CA, USA) PV4753
Summary of the method: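 mTOR (0.5 nM final) phosphorylated GFP-4EBP1 (400 nM final) with ATP (8 μM final) at rt in 50 mM HEPES pH 7.5, 10 mM MnCl2, 50 mM NaCl, 1 mM EGTA, 1 mM DTT. EDTA stop with Tb3+-anti-p4EBP1 [pThr46] antibody (0.5 nM); TR-FRET read 15 min later.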

PI3K alpha = molecular target: T2, PI3K alpha (Homo sapiens, UniProt P42336); test: PI3K alpha kinase assay (Kinase-Glo luminescence); type: biochemical
T2 construct: p85(iSH2) fusion partner (see partner chain) (N); His tag (C); made in house; host or cells: baculovirus; Tn5 (Trichoplusia ni) or TiniPro insect cells
Summary of the method: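 PI3K alpha at 10 nM with 1 μM ATP and 10 μg/mL phosphatidylinositol in 10 mM TRIS pH 7.5, 3 mM MgCl2, 50 mM NaCl, 0.05% CHAPS, 1 mM DTT, 60 min at room temperature. Remaining ATP read by Kinase-Glo luminescence. IC50 by 4-parameter fit over 8 concentrations.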

PI3K delta = molecular target: T3, PI3K delta (Homo sapiens, UniProt O00329); test: PI3K delta kinase assay (Kinase-Glo luminescence); type: biochemical
T3 construct: for the full-length p110-d subunit are generated and fused by overlapping PCR; p85(iSH2) fusion partner (see partner chain) (N); His tag (C); made in house; host or cells: baculovirus; Tn5 (Trichoplusia ni) or TiniPro insect cells
Procedure: (§1) In a more preferred assay, the kinase reaction is performed in a final volume of 10 μL per well of a low volume non binding CORNING, 384 well black plate (Cat. No. #3676). The final concentrations of ATP and phosphatidyl inositol (PI) in the assay are 1 μM and 10 μg/mL respectively. The reaction is started by the addition of ATP.
(§2) The components of the assay are added per well as follows:
(§3) […] in 90% DMSO per well, in columns 1-20, 8 concentrations (1/3 and 1/3.33 serial dilution step) in single. • Low control: […] of 90% DMSO in half the wells of columns 23-24 (0.45% in final). • High control: […] of reference compound (e.g. compound of Example 7 in WO 2006/122806) in the other half of columns 23-24 (2.5 μM in final). • Standard: […] of reference compound as just mentioned diluted as the test compounds in columns 21-22 • 20 mL ‘buffer’ are prepared per assay: • 200 μL of 1M TRIS HCl pH7.5 (10 mM in final) • 60 μL of 1M MgCl2 (3 mM in final) • 500 μL of 2M NaCl (50 mM in final) • 100 μL of 10% CHAPS (0.05% in final) • 200 μL of 100 mM DTT (1 mM in final) • 18.94 mL of nanopure water • 10 mL ‘PI’ are prepared per assay: • 200 μL of 1 mg/ml L-alpha-Phosphatidylinositol (Liver Bovine, Avanti Polar Lipids Cat. No. 840042C MW=909.12) prepared in 3% OctylGlucoside (10 μg/ml in final) • 9.8 mL of ‘buffer’ • 10 mL ‘ATP’ are prepared per assay: • 6.7 μL of 3 mM stock of ATP giving a final concentration of 1 μM per well • 10 mL of ‘buffer’ • 2.5 mL of each PI3K construct are prepared per assay in ‘PI’ with the following final concentration: • 10 nM PI3K alfa EMV B1075 • 25 nM beta EMV BV949 • 10 nM delta EMV BV1060 • 150 nM gamma EMV BV950 • 5 μL of ‘PI/PI3K’ are added per well. • 5 μl ‘ATP’ are added per well to start the reaction. • The plates are then incubated at room temperature for 60 minutes (alfa, beta, delta) or 120 minutes (gamma). • The reaction is terminated by the addition of 10 μL Kinase-Glo (Promega Cat. No. #6714). • The assay plates are read after 10 minutes in Synergy 2 reader (BioTek, Vermont USA) with an integration time of 100 milliseconds and sensitivity set to 191. • Output: The High control is around 60'000 counts and the Low control is 30'000 or lower • This luminescence assay gives a useful Z′ ratio between 0.4 and 0.7
PI3Kγ BV-1060 p85(iSH2)-Gly Linker-p110d(Full-Length)-C-Term his Tag
(§4) IC50 is determined by a four parameter curve fitting routine that comes along with “excel fit”. […] Alternatively, IC50 values are calculated using idbsXLfit model 204, which is a 4 parameter logistic model.

[1] = tested on: PKB Ser473 phosphorylation in Rat1-myr-HA-p110 alpha cells; test: Reverse protein array assay, PKB Ser473 phosphorylation in Rat1-myr-p110 alpha cells; type: cell-based; conditions: 0.5 h, pAkt Ser473, 30 minutes compound incubation, read-out: p-PKB IC50
Summary of the method: (§5)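 Cells: Rat1-myr-HA-p110 alpha/beta/delta, seeded ≥20 h. Lysis on ice 10 min; reverse-phase protein array, 4 lysate dilutions; fluorescence read, relative intensity.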

PI3K beta = molecular target: T4, PI3K beta (Homo sapiens, UniProt P42338); test: PI3K beta kinase assay (Kinase-Glo luminescence); type: biochemical
T4 construct: for the full-length p110-b subunit are generated and fused by overlapping PCR; p85(iSH2) fusion partner (see partner chain) (N); His tag (C); made in house; host or cells: baculovirus; Tn5 (Trichoplusia ni) or TiniPro insect cells
Procedure: as §1, §2, §3
PI3Kβ BV-949 p85(iSH2)-Gly Linker-p110b(Full-Length)-C-Term his Tag
as §4

[2] = tested on: PKB Ser473 phosphorylation in Rat1-myr-HA-p110 beta cells; test: Reverse protein array assay, PKB Ser473 phosphorylation in Rat1-myr-p110 beta cells; type: cell-based; conditions: 0.5 h, pAkt Ser473, 30 minutes incubation, read-out: p-PKB IC50
Summary of the method: as §5

[3] = tested on: PKB Ser473 phosphorylation in Rat1-myr-HA-p110 delta cells; test: Reverse protein array assay, PKB Ser473 phosphorylation in Rat1-myr-p110 delta cells; type: cell-based; conditions: read-out: p-PKB IC50
Summary of the method: as §5

[4] = tested on: S6 Ribosomal Protein phosphorylation Ser235/236 in TSC1 null mouse embryo fibroblast (MEF) cells; test: Reverse protein array assay, S6 Ribosomal Protein phosphorylation Ser235/236 in TSC1 null MEF cells; type: cell-based; conditions: 1 h, pS6 ribosomal protein Ser235/236, 60 minutes incubation, read-out: p-S6 IC50
Summary of the method: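 TSC1−/− MEFs, seeded and held ≥20 h at 37 °C/5% CO2, were exposed to 8-step serial compound dilutions (0.02% DMSO final; DMSO vehicle control) for 60 min at 37 °C. Cells were then lysed on ice for 10 min and lysates spotted onto reverse protein array chips.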

[5] = pH 6.8, aqueous buffer, thermodynamic from solid, read-out: solubility

T3 sequence (O00329 with tags, fused parts or gaps limits assumed): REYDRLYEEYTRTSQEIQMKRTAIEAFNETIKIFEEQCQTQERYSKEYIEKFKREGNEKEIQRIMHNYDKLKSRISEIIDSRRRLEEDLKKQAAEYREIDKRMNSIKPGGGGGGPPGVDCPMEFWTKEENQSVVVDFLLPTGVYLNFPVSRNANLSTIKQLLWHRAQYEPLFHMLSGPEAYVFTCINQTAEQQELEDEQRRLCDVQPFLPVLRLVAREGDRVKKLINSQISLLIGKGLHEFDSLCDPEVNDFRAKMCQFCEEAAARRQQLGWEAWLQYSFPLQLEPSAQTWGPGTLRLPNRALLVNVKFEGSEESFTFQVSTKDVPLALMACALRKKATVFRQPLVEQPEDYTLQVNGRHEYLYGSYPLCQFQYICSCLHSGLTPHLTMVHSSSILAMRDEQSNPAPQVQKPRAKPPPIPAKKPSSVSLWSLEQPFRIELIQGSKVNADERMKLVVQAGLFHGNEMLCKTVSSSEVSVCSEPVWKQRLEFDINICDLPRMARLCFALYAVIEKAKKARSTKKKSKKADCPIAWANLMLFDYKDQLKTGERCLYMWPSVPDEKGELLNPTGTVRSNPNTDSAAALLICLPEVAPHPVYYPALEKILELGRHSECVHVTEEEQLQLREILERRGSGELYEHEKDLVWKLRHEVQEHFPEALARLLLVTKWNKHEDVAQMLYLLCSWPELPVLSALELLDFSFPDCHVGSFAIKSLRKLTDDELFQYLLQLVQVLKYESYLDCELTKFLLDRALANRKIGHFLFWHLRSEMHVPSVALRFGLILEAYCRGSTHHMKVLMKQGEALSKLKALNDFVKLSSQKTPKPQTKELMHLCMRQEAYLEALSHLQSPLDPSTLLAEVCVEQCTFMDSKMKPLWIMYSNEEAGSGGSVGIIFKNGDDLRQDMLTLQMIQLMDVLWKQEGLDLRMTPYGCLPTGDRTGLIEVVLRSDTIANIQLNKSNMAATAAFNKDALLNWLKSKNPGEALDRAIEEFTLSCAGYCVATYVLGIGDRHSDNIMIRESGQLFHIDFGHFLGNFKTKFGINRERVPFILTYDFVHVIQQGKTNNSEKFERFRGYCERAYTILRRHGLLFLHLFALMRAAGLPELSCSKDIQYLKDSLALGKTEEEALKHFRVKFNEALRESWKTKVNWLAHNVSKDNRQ
T1 sequence (P42345 1360-2549 limits assumed): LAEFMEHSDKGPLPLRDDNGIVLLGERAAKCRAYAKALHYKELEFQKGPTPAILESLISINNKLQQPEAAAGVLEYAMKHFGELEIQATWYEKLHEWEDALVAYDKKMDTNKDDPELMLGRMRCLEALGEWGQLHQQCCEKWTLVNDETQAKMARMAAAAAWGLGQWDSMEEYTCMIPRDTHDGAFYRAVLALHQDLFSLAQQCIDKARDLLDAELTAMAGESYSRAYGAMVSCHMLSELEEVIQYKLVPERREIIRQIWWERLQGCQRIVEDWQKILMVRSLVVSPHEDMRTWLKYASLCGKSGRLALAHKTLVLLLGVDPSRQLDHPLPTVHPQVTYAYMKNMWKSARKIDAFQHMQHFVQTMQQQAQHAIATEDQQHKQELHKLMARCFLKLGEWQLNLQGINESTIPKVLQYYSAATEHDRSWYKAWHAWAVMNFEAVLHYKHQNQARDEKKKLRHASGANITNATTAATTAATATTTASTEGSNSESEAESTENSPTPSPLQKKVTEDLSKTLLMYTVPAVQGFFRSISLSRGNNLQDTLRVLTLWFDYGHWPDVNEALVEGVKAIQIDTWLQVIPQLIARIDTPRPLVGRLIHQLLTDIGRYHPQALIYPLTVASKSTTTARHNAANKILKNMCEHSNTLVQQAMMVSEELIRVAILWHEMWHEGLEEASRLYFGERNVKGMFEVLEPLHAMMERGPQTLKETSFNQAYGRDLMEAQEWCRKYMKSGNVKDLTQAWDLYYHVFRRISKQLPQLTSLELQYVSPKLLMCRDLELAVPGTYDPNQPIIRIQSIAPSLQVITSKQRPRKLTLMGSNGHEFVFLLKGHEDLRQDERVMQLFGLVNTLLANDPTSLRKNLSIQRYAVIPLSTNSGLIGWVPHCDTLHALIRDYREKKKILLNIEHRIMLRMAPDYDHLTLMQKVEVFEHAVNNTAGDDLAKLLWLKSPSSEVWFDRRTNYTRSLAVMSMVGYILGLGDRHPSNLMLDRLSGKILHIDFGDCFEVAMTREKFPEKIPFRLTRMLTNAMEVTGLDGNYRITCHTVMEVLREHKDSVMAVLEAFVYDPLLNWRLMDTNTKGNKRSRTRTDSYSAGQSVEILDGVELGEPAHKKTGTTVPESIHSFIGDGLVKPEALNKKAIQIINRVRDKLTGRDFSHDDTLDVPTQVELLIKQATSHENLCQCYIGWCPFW
T4 sequence (P42338 with tags, fused parts or gaps limits assumed): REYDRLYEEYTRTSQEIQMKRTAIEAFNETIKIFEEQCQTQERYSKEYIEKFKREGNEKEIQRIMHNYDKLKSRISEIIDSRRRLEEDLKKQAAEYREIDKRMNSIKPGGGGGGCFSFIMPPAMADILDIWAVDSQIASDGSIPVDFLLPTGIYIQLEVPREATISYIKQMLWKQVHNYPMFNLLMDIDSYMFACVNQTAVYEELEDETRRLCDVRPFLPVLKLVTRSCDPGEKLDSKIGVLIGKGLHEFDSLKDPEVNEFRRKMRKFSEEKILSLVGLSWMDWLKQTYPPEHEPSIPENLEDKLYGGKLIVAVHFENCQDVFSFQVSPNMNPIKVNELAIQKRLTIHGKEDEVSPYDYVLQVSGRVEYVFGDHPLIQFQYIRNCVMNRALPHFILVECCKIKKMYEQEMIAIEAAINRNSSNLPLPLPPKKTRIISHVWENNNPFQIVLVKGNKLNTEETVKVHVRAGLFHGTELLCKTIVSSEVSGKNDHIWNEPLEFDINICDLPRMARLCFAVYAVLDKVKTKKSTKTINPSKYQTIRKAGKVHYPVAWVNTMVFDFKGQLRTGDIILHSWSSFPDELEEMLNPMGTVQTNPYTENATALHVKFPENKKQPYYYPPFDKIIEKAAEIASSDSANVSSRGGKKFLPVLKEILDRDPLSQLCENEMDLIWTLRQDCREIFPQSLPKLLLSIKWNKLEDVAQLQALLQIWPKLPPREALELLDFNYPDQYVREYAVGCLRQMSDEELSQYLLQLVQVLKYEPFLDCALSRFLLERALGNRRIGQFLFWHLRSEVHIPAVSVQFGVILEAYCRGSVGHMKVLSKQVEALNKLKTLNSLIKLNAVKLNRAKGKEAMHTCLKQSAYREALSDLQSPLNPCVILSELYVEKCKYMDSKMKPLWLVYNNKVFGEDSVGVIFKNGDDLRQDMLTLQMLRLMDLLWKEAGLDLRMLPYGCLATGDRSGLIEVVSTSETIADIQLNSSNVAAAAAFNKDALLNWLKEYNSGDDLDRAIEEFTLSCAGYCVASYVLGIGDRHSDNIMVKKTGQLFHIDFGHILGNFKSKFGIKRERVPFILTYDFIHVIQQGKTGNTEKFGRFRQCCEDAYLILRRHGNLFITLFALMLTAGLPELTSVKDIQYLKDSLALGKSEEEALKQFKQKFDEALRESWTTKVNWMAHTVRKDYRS
T2 sequence (P42336 with tags, fused parts or gaps limits assumed): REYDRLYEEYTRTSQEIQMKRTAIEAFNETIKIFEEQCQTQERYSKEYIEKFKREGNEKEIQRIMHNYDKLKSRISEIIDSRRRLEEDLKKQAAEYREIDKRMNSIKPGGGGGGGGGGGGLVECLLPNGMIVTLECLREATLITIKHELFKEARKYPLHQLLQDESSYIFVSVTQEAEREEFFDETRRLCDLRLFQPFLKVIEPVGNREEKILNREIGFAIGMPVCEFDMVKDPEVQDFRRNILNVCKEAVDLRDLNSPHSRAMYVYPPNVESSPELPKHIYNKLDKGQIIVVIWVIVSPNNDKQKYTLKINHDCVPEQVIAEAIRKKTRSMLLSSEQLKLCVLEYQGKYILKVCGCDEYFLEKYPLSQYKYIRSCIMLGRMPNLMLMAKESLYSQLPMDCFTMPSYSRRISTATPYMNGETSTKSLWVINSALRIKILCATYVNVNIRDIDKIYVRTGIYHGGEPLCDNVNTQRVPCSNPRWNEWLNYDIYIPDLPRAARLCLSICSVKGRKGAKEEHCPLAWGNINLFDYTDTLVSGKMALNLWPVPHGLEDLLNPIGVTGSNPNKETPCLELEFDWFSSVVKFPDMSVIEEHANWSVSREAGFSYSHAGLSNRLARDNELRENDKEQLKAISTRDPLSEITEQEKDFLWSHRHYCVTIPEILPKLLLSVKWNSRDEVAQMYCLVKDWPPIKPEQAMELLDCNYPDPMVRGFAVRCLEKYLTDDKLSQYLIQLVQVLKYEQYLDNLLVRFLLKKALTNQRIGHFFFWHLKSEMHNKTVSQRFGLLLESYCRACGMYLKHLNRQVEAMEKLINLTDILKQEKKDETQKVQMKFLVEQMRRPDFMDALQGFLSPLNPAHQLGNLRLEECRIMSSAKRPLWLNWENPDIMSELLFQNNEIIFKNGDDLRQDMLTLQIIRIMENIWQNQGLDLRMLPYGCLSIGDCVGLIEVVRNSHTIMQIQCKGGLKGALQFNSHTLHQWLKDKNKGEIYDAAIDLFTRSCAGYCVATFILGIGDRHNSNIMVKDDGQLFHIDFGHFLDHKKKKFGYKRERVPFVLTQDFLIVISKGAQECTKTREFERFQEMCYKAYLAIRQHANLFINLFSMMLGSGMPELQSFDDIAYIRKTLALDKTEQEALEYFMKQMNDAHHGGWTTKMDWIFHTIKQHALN

Cc1cc(-n2c(=O)n(C)c3cnc4ccc(-c5cccnc5F)cc4c32)n(C)n1 [Example 9, 1-(2,5-Dimethyl-2H-pyrazol-3-yl)-8-(2-fluoro-pyridin-3-yl)-3-methyl-1,3-dihydro-imidazo[4,5-c]quinolin-2-one]
solubility (Solubility at pH 6.8; [5]): 9 µg/mL (≈ 23.2 µM)
IC50 (mTOR): 383 nM
IC50 (PI3K alpha): 246 nM
IC50 (PI3K delta): 737 nM

Cn1nccc1-n1c(=O)n(C)c2cnc3ccc(-c4ccnc(F)c4)cc3c21 [Example 11, 8-(2-Fluoro-pyridin-4-yl)-3-methyl-1-(2-methyl-2H-pyrazol-3-yl)-1,3-dihydro-imidazo[4,5-c]quinolin-2-one]
solubility (Solubility at pH 6.8; pH 6.8): 2 µg/mL (≈ 5.34 µM)
IC50 (PI3K delta): 810 nM

Cc1nn(C)cc1-n1c(=O)n(C)c2cnc3ccc(-c4cnn(CCO)c4)cc3c21 [Example 106, 1-(1,3-Dimethyl-1H-pyrazol-4-yl)-8-[1-(2-hydroxy-ethyl)-1H-pyrazol-4-yl]-3-methyl-1,3-dihydro-imidazo[4,5-c]quinolin-2-one]
solubility (Solubility at pH 6.8; [5]): > 403 µg/mL
IC50 (mTOR): 672 nM
IC50 (PI3K alpha): 154 nM
IC50 (PI3K delta): 147 nM

COc1ccc(-c2ccc3ncc4[nH]c(=O)n(-c5cn(C)nc5C)c4c3c2)cc1OC [Example 111, 8-(3,4-Dimethoxy-phenyl)-1-(1,3-dimethyl-1H-pyrazol-4-yl)-1,3-dihydro-imidazo[4,5-c]quinolin-2-one]
IC50 [1]: 10 nM
IC50 (PI3K beta): 41 nM
IC50 [2]: 13 nM
IC50 [3]: 18 nM
IC50 (PI3K alpha): 27 nM
IC50 (PI3K delta): 50 nM
IC50 [4]: 3 nM

Cc1nn(C(C)C)cc1-n1c(=O)n(C)c2cnc3ccc(-c4ccccn4)cc3c21 [Example 113, 1-(1-Isopropyl-3-methyl-1H-pyrazol-4-yl)-3-methyl-8-pyridin-2-yl-1,3-dihydro-imidazo[4,5-c]quinolin-2-one]
solubility (Solubility at pH 6.8; [5]): 30 µg/mL (≈ 75.3 µM)
IC50 [1]: 818 nM

CCNc1cc(-c2ccc3ncc4c(c3c2)n(-c2c(C)noc2C)c(=O)n4C)cnc1F [Example 154.2, 1-(3,5-Dimethyl-isoxazol-4-yl)-8-(5-ethylamino-6-fluoro-pyridin-3-yl)-3-methyl-1,3-dihydro-imidazo[4,5-c]quinolin-2-one]
IC50 [1]: 253 nM
IC50 (PI3K beta): 76 nM
IC50 [2]: 245 nM
IC50 [3]: 458 nM
IC50 (PI3K alpha): 173 nM
IC50 (PI3K delta): 80 nM
IC50 [4]: 39 nM

CCOCc1cc(-c2ccc3ncc4c(c3c2)n(-c2c(C)nn(C)c2C)c(=O)n4C)cnc1N [Example 166.5, 8-(6-Amino-5-ethoxymethyl-pyridin-3-yl)-3-methyl-1-(1,3,5-trimethyl-1H-pyrazol-4-yl)-1,3-dihydro-imidazo[4,5-c]quinolin-2-one]
IC50 [1]: 301 nM
IC50 (PI3K beta): 222 nM
IC50 [3]: 833 nM
IC50 (PI3K alpha): 28 nM
IC50 (PI3K delta): 33 nM
IC50 [4]: 91.7 nM

CNC(=O)Cc1cncc(-c2ccc3ncc4c(c3c2)n(-c2cn(C)nc2C)c(=O)n4C)c1 [Example 228, 2-{5-[1-(1,3-Dimethyl-1H-pyrazol-4-yl)-3-methyl-2-oxo-2,3-dihydro-1H-imidazo[4,5-c]quinolin-8-yl]-pyridin-3-yl}-N-methyl-acetamide]
solubility (Solubility at pH 6.8; [5]): > 441 µg/mL
IC50 (PI3K alpha): 85 nM
IC50 (PI3K delta): 166 nM

Cc1nn(C)cc1-n1c(=O)n(C)c2cnc3ccc(-c4cncc(C(C)(C)CO)c4)cc3c21 [Example 229, 1-(1,3-Dimethyl-1H-pyrazol-4-yl)-8-[5-(2-hydroxy-1,1-dimethyl-ethyl)-pyridin-3-yl]-3-methyl-1,3-dihydro-imidazo[4,5-c]quinolin-2-one]
IC50 [1]: 279 nM
IC50 (PI3K beta): 8 nM
IC50 [2]: 275 nM
IC50 [3]: 235 nM
IC50 (PI3K alpha): 8 nM
IC50 (PI3K delta): 5 nM
IC50 [4]: 11 nM

CC(=O)NCc1cncc(-c2ccc3ncc4c(c3c2)n(-c2cn(C)nc2C)c(=O)n4C)c1 [Example 231, N-{5-[1-(1,3-Dimethyl-1H-pyrazol-4-yl)-3-methyl-2-oxo-2,3-dihydro-1H-imidazo[4,5-c]quinolin-8-yl]-pyridin-3-ylmethyl}-acetamide]
solubility (Solubility at pH 6.8; [5]): 413 µg/mL (≈ 935 µM)
IC50 (mTOR): 542 nM
IC50 (PI3K alpha): 405 nM

CNc1ncc(-c2ccc3ncc4c(c3c2)n(-c2cn(C)nc2C)c(=O)n4C)cc1COC [Example 248.3, 1-(1,3-Dimethyl-1H-pyrazol-4-yl)-8-(5-methoxymethyl-6-methylamino-pyridin-3-yl)-3-methyl-1,3-dihydro-imidazo[4,5-c]quinolin-2-one]
IC50 [1]: 9 nM
IC50 (PI3K beta): 23 nM
IC50 (mTOR): 15 nM
IC50 [2]: 25 nM
IC50 [3]: 25 nM
IC50 (PI3K alpha): 10 nM
IC50 (PI3K delta): < 3 nM

CNc1ncc(-c2ccc3ncc4c(c3c2)n(-c2cn(C)nc2Cl)c(=O)n4C)cc1COC [Example 248.4, 1-(3-Chloro-1-methyl-1H-pyrazol-4-yl)-8-(5-methoxymethyl-6-methylaminopyridin-3-yl)-3-methyl-1,3-dihydro-imidazo[4,5-c]quinolin-2-one]
IC50 [1]: < 5 nM
IC50 (PI3K beta): 8 nM
IC50 (mTOR): 6 nM
IC50 [2]: 8 nM
IC50 [3]: 8 nM
IC50 (PI3K alpha): 7 nM
IC50 (PI3K delta): < 3 nM
